Assay results as given in patent publication US20260207573A1, “EFFECT OF RIVOCERANIB ON CYTOCHROME P450 ENZYME SUBSTRATES” (ELEVAR THERAPEUTICS, INC., priority 2022, published 2026).

Legend:
CYP3A4/5 = assay: Example 1 pharmacokinetic interaction study, rivoceranib 200 mg + Cooperstown 5+1 cocktail: midazolam probe; conditions: for AUC(0-t), Geometric Mean Ratio, (Cooperstown Cocktail + Rivoceranib)/Cooperstown Cocktail Alone / AUC(0-∞), Geometric Mean Ratio, (Cooperstown Cocktail + Rivoceranib)/Cooperstown Cocktail Alone / Cmax, Geometric Mean Ratio, (Cooperstown Cocktail + Rivoceranib)/Cooperstown Cocktail Alone: rivoceranib 200 mg daily, D11 vs D1
CYP3A = assay: Example 2 phase 1 drug-drug interaction study, rivoceranib 700 mg QD + 5+1 cocktail: midazolam probe; set-up: AUC(0-t), Mean (CV %), 5 + 1 cocktail alone / AUC(0-t), Geometric LSM, 5 + 1 cocktail alone / AUC(0-t), Mean (CV %), Rivoceranib plus 5 + 1 cocktail / AUC(0-t), Geometric LSM, Rivoceranib plus 5 + 1 cocktail / AUC(0-∞), Mean (CV %), 5 + 1 cocktail alone / AUC(0-∞), Geometric LSM, 5 + 1 cocktail alone / AUC(0-∞), Mean (CV %), Rivoceranib plus 5 + 1 cocktail / AUC(0-∞), Geometric LSM, Rivoceranib plus 5 + 1 cocktail: unit not given beside the values; conditions: for AUC(0-t), Geometrical mean Ratio, % (90% CI) / AUC(0-∞), Geometrical mean Ratio, % (90% CI) / Cmax, Geometrical mean Ratio, % (90% CI): rivoceranib 700 mg QD, 100*LSM Rivoceranib Plus 5+1 Cocktail/LSM 5+1 Cocktail Alone; for AUC(0-t) / AUC(0-inf) / Cmax: human, in vivo
Experimental: (§1) This example describes a pharmacokinetic interaction study in healthy human volunteers dosed with 700 mg rivoceranib and a mixture of cytochrome P450 enzyme (CYP1A2, CYP2C9, CYP2C19, CYP2D6, and CYP3A) substrates.
(§2) The primary objective of the study was to evaluate the effect of rivoceranib 700 mg once daily (QD) on the pharmacokinetics (PK) of various CYP substrates to determine drug-drug interactions of rivoceranib.
(§3) This was an open-label, 2-treatment, fixed-sequence drug-drug interaction phase 1 study designed to evaluated the impact of multiple oral doses of 700 mg rivoceranib on the single-dose PK of CYP enzyme substrates administered in a 5+1 Cooperstown probe cocktail (caffeine [CYP1A2], S- and R-warfarin [CYP2C9]+vitamin K, omeprazole [CYP2C19], dextromethorphan [CYP2D6], and midazolam [CYP3A]) in healthy volunteers (N=32). On day 1, volunteers received a single dose of the 5+1 cocktail comprising 200 mg caffeine, 10 mg S- and R-warfarin with 10 mg vitamin K, 40 mg omeprazole, 30 mg dextromethorphan, and 2 mg midazolam. Blood samples were collected pre-dose on day 1 and up to 120 hours post-dose for PK analyses of the substrates in the 5+1 cocktail. On days 6 to 15, volunteers received 700 mg rivoceranib once daily for 10 consecutive days with a single dose of the 5+1 cocktail administered on day 11. Blood samples were collected pre-dose on day 11 and up to 120 hours post cocktail dosing (day 16) for PK analyses. Each dosing was under fasted conditions. There was a washout period of 5 days between day 1 dosing and the first rivoceranib dose on day 6; the 2 cocktail dosings were spaced by 10 days.

CYP2C19 = CYP2C19 (Homo sapiens, UniProt P33261); conditions: in vivo, po
Chain of CYP2C19 (P33261 whole entry): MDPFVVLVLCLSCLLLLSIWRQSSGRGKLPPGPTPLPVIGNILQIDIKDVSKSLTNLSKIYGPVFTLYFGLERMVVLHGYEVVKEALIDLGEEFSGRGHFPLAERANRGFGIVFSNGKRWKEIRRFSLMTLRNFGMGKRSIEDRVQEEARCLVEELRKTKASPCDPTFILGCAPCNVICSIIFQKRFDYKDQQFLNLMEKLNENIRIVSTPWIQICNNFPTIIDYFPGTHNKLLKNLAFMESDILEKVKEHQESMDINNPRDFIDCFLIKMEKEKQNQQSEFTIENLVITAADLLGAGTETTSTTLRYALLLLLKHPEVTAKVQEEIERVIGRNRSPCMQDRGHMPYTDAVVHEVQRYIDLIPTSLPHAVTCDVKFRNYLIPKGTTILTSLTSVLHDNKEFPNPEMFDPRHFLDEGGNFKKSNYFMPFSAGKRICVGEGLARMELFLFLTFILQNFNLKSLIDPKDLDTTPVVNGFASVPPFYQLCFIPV

CYP2D6 [1] = molecular target: T1, CYP2D6 (Homo sapiens, UniProt P10635); assay: Example 1 pharmacokinetic interaction study, rivoceranib 200 mg + Cooperstown 5+1 cocktail: dextromethorphan probe; conditions: for AUC(0-t), Geometric Mean Ratio, (Cooperstown Cocktail + Rivoceranib)/Cooperstown Cocktail Alone / AUC(0-∞), Geometric Mean Ratio, (Cooperstown Cocktail + Rivoceranib)/Cooperstown Cocktail Alone / Cmax, Geometric Mean Ratio, (Cooperstown Cocktail + Rivoceranib)/Cooperstown Cocktail Alone: rivoceranib 200 mg daily, D11 vs D1
T1 sequence (P10635 whole entry): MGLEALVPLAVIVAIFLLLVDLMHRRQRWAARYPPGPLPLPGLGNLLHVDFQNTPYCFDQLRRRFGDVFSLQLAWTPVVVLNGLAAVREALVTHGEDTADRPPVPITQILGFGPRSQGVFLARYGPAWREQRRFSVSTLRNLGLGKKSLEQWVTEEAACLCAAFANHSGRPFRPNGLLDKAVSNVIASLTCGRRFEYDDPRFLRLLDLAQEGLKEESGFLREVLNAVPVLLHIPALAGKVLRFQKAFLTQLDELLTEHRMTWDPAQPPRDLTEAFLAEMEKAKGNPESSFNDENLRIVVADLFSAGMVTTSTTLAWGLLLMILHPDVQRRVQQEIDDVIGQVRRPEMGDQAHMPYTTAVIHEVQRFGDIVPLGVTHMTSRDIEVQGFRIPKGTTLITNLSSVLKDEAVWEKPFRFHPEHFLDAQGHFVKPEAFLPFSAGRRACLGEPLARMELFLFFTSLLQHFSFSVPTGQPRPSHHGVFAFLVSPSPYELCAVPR

CYP2D6 [2] = molecular target: T1, CYP2D6; assay: Example 2 phase 1 drug-drug interaction study, rivoceranib 700 mg QD + 5+1 cocktail: dextromethorphan probe; conditions: for AUC(0-t) / AUC(0-inf) / Cmax: human, in vivo, healthy volunteers; for AUC(0-t), Geometrical mean Ratio, % (90% CI) / AUC(0-∞), Geometrical mean Ratio, % (90% CI) / Cmax, Geometrical mean Ratio, % (90% CI): rivoceranib 700 mg QD, 100*LSM Rivoceranib Plus 5+1 Cocktail/LSM 5+1 Cocktail Alone
Experimental: as §1, §2, §3

[3] = healthy volunteers, 5+1 cocktail day 11 + rivoceranib 700 mg QD days 6-15
[4] = healthy volunteers, single oral 5+1 cocktail dose day 1, fasted
[5] = rivoceranib 200 mg once daily, oral substrate
[6] = Geometric LSM, Rivoceranib plus 5 + 1 cocktail, 5+1 cocktail day 11 + rivoceranib 700 mg QD days 6-15
[7] = Mean (CV %), Rivoceranib plus 5 + 1 cocktail, 5+1 cocktail day 11 + rivoceranib 700 mg QD days 6-15
[8] = po, Geometric LSM, 5 + 1 cocktail alone, single oral 5+1 cocktail dose day 1, fasted
[9] = po, Mean (CV %), 5 + 1 cocktail alone, single oral 5+1 cocktail dose day 1, fasted
[10] = Geometric LSM, Rivoceranib plus 5 + 1 cocktail, healthy volunteers, 5+1 cocktail day 11 + rivoceranib 700 mg QD days 6-15
[11] = Mean (CV %), Rivoceranib plus 5 + 1 cocktail, healthy volunteers, 5+1 cocktail day 11 + rivoceranib 700 mg QD days 6-15
[12] = po, 2 mg, Geometric LSM, 5 + 1 cocktail alone, healthy volunteers, single oral 5+1 cocktail dose day 1, fasted
[13] = po, 2 mg, Mean (CV %), 5 + 1 cocktail alone, healthy volunteers, single oral 5+1 cocktail dose day 1, fasted

OCc1ncc2n1-c1ccc(Cl)cc1C(c1ccccc1F)=NC2 [1-hydroxymidazolam]
AUC(0-t), Geometric Mean Ratio, (Cooperstown Cocktail + Rivoceranib)/Cooperstown Cocktail Alone (CYP3A4/5): 1.2627 | AUC(0-∞), Geometric Mean Ratio, (Cooperstown Cocktail + Rivoceranib)/Cooperstown Cocktail Alone (CYP3A4/5): 1.1355 | Cmax, Geometric Mean Ratio, (Cooperstown Cocktail + Rivoceranib)/Cooperstown Cocktail Alone (CYP3A4/5): 0.8913 | AUC(0-t), Geometric LSM, Rivoceranib plus 5 + 1 cocktail (CYP3A; [3]): 13.89 | AUC(0-t), Mean (CV %), Rivoceranib plus 5 + 1 cocktail (CYP3A; [3]): 14.37 | AUC(0-∞), Geometric LSM, Rivoceranib plus 5 + 1 cocktail (CYP3A; [3]): 15.16 | AUC(0-∞), Mean (CV %), Rivoceranib plus 5 + 1 cocktail (CYP3A; [3]): 15.67 | Cmax, Geometric LSM, Rivoceranib plus 5 + 1 cocktail (CYP3A; [3]): 4.639 ng/mL | Cmax, Mean (CV %), Rivoceranib plus 5 + 1 cocktail (CYP3A; [3]): 4.797 ng/mL | AUC(0-t), Geometric LSM, 5 + 1 cocktail alone (CYP3A; [4]): 9.643 | AUC(0-t), Mean (CV %), 5 + 1 cocktail alone (CYP3A; [4]): 9.643 | AUC(0-∞), Geometric LSM, 5 + 1 cocktail alone (CYP3A; [4]): 10.21 | AUC(0-∞), Mean (CV %), 5 + 1 cocktail alone (CYP3A; [4]): 10.18 | Cmax, Geometric LSM, 5 + 1 cocktail alone (CYP3A; [4]): 4.115 ng/mL | Cmax, Mean (CV %), 5 + 1 cocktail alone (CYP3A; [4]): 4.115 ng/mL | AUC(0-t), Geometrical mean Ratio, % (90% CI) (CYP3A): 144.05% | AUC(0-∞), Geometrical mean Ratio, % (90% CI) (CYP3A): 148.48% | Cmax, Geometrical mean Ratio, % (90% CI) (CYP3A): 112.73%

COc1ccc2nc([S+]([O-])Cc3ncc(CO)c(OC)c3C)[nH]c2c1 (stereo not drawn) [5-hydroxyomeprazole]
AUC(0-t), Geometric LS Mean, Cooperstown Cocktail Alone (CYP2C19): 6.6476 | AUC(0-∞), Geometric LS Mean, Cooperstown Cocktail Alone (CYP2C19): 6.6678 | Cmax, Geometric LS Mean, Cooperstown Cocktail Alone (CYP2C19): 5.3867

COc1ccc2c(c1)[C@]13CCCC[C@@H]1[C@H](C2)N(C)CC3 [dextromethorphan]
AUC(0-t), Geometric Mean Ratio, (Cooperstown Cocktail + Rivoceranib)/Cooperstown Cocktail Alone (CYP2D6 [1]): 2.5448 | AUC(0-∞), Geometric Mean Ratio, (Cooperstown Cocktail + Rivoceranib)/Cooperstown Cocktail Alone (CYP2D6 [1]): 2.6650 | Cmax, Geometric Mean Ratio, (Cooperstown Cocktail + Rivoceranib)/Cooperstown Cocktail Alone (CYP2D6 [1]): 1.9039 | increase in AUC0-∞ on coadministration of rivoceranib relative to Cooperstown 5+1 cocktail only (CYP2D6 [1]; [5]): 144% | increase in Cmax on coadministration of rivoceranib relative to Cooperstown 5+1 cocktail only (CYP2D6 [1]; [5]): 70% | AUC(0-t) (CYP2D6 [2]; [6]): 27.1 ng·h/mL | AUC(0-t) (CYP2D6 [2]; [7]): 23.7 ng·h/mL | AUC(0-inf) (CYP2D6 [2]; [6]): 36.2 ng·h/mL | AUC(0-inf) (CYP2D6 [2]; [7]): 33.2 ng·h/mL | Cmax (CYP2D6 [2]; [6]): 2.78 ng/mL | Cmax (CYP2D6 [2]; [7]): 2.53 ng/mL | AUC(0-t) (CYP2D6 [2]; [8]): 10.4 ng·h/mL | AUC(0-t) (CYP2D6 [2]; [9]): 10.4 ng·h/mL | AUC(0-inf) (CYP2D6 [2]; [8]): 13.3 ng·h/mL | AUC(0-inf) (CYP2D6 [2]; [9]): 14 ng·h/mL | Cmax (CYP2D6 [2]; [8]): 1.4 ng/mL | Cmax (CYP2D6 [2]; [9]): 1.4 ng/mL | increase in exposure with rivoceranib (CYP2D6 [2]; rivoceranib 700 mg): 2- to 2.7 fold | AUC(0-t), Geometrical mean Ratio, % (90% CI) (CYP2D6 [2]): 259.87% | AUC(0-∞), Geometrical mean Ratio, % (90% CI) (CYP2D6 [2]): 272.50% | Cmax, Geometrical mean Ratio, % (90% CI) (CYP2D6 [2]): 198.80%

CN1CC[C@@]23CCCC[C@@H]2[C@@H]1Cc1ccc(O)cc13 [dextrorphan]
AUC(0-t), Geometric Mean Ratio, (Cooperstown Cocktail + Rivoceranib)/Cooperstown Cocktail Alone (CYP2D6 [1]): 1.1509 | AUC(0-∞), Geometric Mean Ratio, (Cooperstown Cocktail + Rivoceranib)/Cooperstown Cocktail Alone (CYP2D6 [1]): 1.1104 | Cmax, Geometric Mean Ratio, (Cooperstown Cocktail + Rivoceranib)/Cooperstown Cocktail Alone (CYP2D6 [1]): 0.8950 | AUC(0-t) (CYP2D6 [2]; [6]): 33.7 ng·h/mL | AUC(0-t) (CYP2D6 [2]; [7]): 34.5 ng·h/mL | AUC(0-inf) (CYP2D6 [2]; [6]): 37.1 ng·h/mL | AUC(0-inf) (CYP2D6 [2]; [7]): 37.8 ng·h/mL | Cmax (CYP2D6 [2]; [6]): 4.74 ng/mL | Cmax (CYP2D6 [2]; [7]): 4.88 ng/mL | AUC(0-t) (CYP2D6 [2]; [8]): 26.1 ng·h/mL | AUC(0-t) (CYP2D6 [2]; [9]): 26.1 ng·h/mL | AUC(0-inf) (CYP2D6 [2]; [8]): 27.9 ng·h/mL | AUC(0-inf) (CYP2D6 [2]; [9]): 27.9 ng·h/mL | Cmax (CYP2D6 [2]; [8]): 4.66 ng/mL | Cmax (CYP2D6 [2]; [9]): 4.66 ng/mL | AUC(0-t), Geometrical mean Ratio, % (90% CI) (CYP2D6 [2]): 129.07% | AUC(0-∞), Geometrical mean Ratio, % (90% CI) (CYP2D6 [2]): 133.22% | Cmax, Geometrical mean Ratio, % (90% CI) (CYP2D6 [2]): 101.70%

Cc1ncc2n1-c1ccc(Cl)cc1C(c1ccccc1F)=NC2 [midazolam]
AUC(0-t), Geometric Mean Ratio, (Cooperstown Cocktail + Rivoceranib)/Cooperstown Cocktail Alone (CYP3A4/5): 1.5573 | AUC(0-∞), Geometric Mean Ratio, (Cooperstown Cocktail + Rivoceranib)/Cooperstown Cocktail Alone (CYP3A4/5): 1.4451 | Cmax, Geometric Mean Ratio, (Cooperstown Cocktail + Rivoceranib)/Cooperstown Cocktail Alone (CYP3A4/5): 1.1509 | increase in AUC0-∞ following coadministration with rivoceranib (CYP3A4/5; [5]): 65% | increase in Cmax following coadministration with rivoceranib (CYP3A4/5; [5]): 16% | AUC(0-t) (CYP3A; [10]): 75.2 ng·h/mL | AUC(0-t) (CYP3A; [11]): 75.5 ng·h/mL | AUC(0-inf) (CYP3A; [10]): 82.1 ng·h/mL | AUC(0-inf) (CYP3A; [11]): 82.5 ng·h/mL | Cmax (CYP3A; [10]): 25.7 ng/mL | Cmax (CYP3A; [11]): 25.7 ng/mL | AUC(0-t) (CYP3A; [12]): 28.1 ng·h/mL | AUC(0-t) (CYP3A; [13]): 28.1 ng·h/mL | AUC(0-inf) (CYP3A; [12]): 29.7 ng·h/mL | AUC(0-inf) (CYP3A; [13]): 29.7 ng·h/mL | Cmax (CYP3A; [12]): 10.8 ng/mL | Cmax (CYP3A; [13]): 10.8 ng/mL | increase in exposure following coadministration with rivoceranib (CYP3A; rivoceranib 700 mg): 2.4- to 2.8 fold | AUC(0-t), Geometrical mean Ratio, % (90% CI) (CYP3A): 267.59% | AUC(0-∞), Geometrical mean Ratio, % (90% CI) (CYP3A): 276.27% | Cmax, Geometrical mean Ratio, % (90% CI) (CYP3A): 237.88%
